Laboratory results: US8933070B2, “Methods of targeting PTEN mutant diseases and compositions therefor” (University Health Network, priority 2010, dated 2015)
Each block holds one compound with its values, some of them ahead of it.

Legend:
human PLK4 = biological target: T1, human PLK4 (Homo sapiens, UniProt O00444); experiment: PLK4 inhibition assay (indirect ELISA); format: biochemical; conditions: read-out: IC50 Ranges PLK4
T1 construct: amino terminal GST fusion of residues 1-391 of human PLK4; made in house; host or cells: E. coli
T1 sequence (O00444 1-391): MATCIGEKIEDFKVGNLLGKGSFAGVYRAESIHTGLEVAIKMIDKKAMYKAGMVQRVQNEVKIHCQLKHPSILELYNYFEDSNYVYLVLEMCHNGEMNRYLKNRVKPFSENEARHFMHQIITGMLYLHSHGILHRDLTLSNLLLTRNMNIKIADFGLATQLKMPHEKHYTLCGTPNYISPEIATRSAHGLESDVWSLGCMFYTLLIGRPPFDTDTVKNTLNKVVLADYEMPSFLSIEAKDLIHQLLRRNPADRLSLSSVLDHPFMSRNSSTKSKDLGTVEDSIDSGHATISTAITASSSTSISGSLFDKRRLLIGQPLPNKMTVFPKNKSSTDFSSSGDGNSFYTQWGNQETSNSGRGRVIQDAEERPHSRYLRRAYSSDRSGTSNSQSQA
Description: The protein was purified from clarified cell extracts after induction at 15° C. overnight using glutathione sepharose, gel permeation chromatography, and ion exchange (Resource Q). The resulting protein was dephosphorylated with lambda phosphatase (NEB cat# P0753), and resolved from the phosphatase using gluthione sepharose. The dephosphorylated GST-PLK4 was stored in aliquots at −80° C. until use.
PLK4 activity was measured using an indirect ELISA detection system. […] The colourimetric reaction was allowed to continue for 5 minutes, followed by addition of stop solution (0.5 N sulphuric acid), and quantified by detection at 450 nm with either a monochromatic or filter based plate reader (Molecular Devices M5 or Beckman DTX880, respectively).
Compounds were pre-incubated in the presence of enzyme for 15 minutes prior to addition of ATP and the activity remaining quantified using the above described activity assay. […] The IC50 value was determined using a non-linear 4 point logistic curve fit (XLfit4, IDBS) with the formula; (A+(B/(1+((x/C)^D)))), where A=background value, B=range, C=inflection point, D=curve fit parameter.

Aurora A = biological target: T2, Aurora A (Homo sapiens, UniProt O14965); experiment: Aurora A inhibition assay (Z-Lyte); format: biochemical; conditions: for inhibition at 10 µM: dose of 10 μM, read-out: Aurora A relative inhibition percentage
T2 construct: purchased Invitrogen PV3612
T2 sequence (O14965 1-403): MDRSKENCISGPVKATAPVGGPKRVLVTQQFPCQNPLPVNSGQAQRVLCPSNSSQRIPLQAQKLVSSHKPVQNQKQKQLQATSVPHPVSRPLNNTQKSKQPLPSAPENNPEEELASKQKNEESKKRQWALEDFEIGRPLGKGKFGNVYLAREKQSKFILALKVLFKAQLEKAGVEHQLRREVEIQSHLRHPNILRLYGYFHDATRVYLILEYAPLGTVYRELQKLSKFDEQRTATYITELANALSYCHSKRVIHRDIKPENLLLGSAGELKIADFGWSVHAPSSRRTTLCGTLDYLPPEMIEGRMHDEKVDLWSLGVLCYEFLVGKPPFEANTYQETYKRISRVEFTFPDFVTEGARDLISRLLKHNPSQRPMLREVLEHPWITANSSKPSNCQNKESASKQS
Description: (§1) Aurora A inhibition was determined using the Z-Lyte assay kit from Invitrogen. The assay was performed using the recommended manufacturer's instructions with 20 nM ATP and 12 nM Aurora A (Invitrogen cat #PV3612). The % inhibition values were determined according to the manufacturer's directions and IC50 values were obtained using a non-linear 4 point logistic curve fit (XLfit4, IDBS)

Aurora B = biological target: T3, Aurora B (Homo sapiens, UniProt Q96GD4); experiment: Aurora B inhibition assay (Z-Lyte); format: biochemical; conditions: read-out: IC50 Ranges Aurura B
T3 construct: purchased Invitrogen PV3970
Description: Aurora B inhibition was determined using the Z-Lyte assay kit from Invitrogen. […] The % inhibition values were determined according to the manufacturer's directions and IC50 values were obtained using a non-linear 4 point logistic curve fit (XLfit4, IDBS).

PLK2 = biological target: T4, PLK2 (Homo sapiens, UniProt Q9NYY3); experiment: PLK2 inhibition assay (Z-Lyte); format: biochemical; conditions: for inhibition at 10 µM: dose of 10 μM, read-out: PLK2 relative inhibition percentage
T4 construct: purchased Invitrogen PV4204
Description: as §1, with “PLK2” for “Aurora A”, “Invitrogen (cat# PV3802).” for “Invitrogen.”, “60 μM” for “20 nM”, “133” for “12”, “#PV4204).” for “#PV3612).”

AMPKalpha = experiment: Kinase selectivity assay (CEREP, HTRF); format: biochemical, human
Description: The inhibitory activity of selected compounds was evaluated against a panel of 45 different kinase enzymes by CEREP, France. The assays were performed using standard HTRF assay methods as documented by CEREP against the human orthologues of Abl kinase, Akt1/PKBa, AMPKa, BMX kinase (Etk), Brk, CaMK2a, CaMK4, CDC2/CDK1 (cycB), CHK1, CHK2, c-Met kinase, CSK, EphB4 kinase, ERK1, ERK2 (P42mapk), FGFR2 kinase, FGFR4 kinase, FLT-1 kinase (VEGFR1), FLT-3 kinase, Fyn kinase, IGF1R kinase, IRK (InsR), JNK 2, KDR kinase (VEGFR2), Lck kinase, Lyn kinase, MAPKAPK2, MEK1/MAP2K1, p38a kinase, p38d kinase, p38g kinase, PDGFRb kinase, PDK1, PKA, PKCa, PKCb1, PKCb2, PKCg, Ret kinase, ROCK2, RSK2, Src kinase, Syk, and TRKA. The % Inhibition was determined by the formula; % Inhibition=100×(1−(experimental value−background value)/(high activity control−background value)).

FGFR1 = experiment: Millipore kinase assay (radiolabelled phosphopeptide filter binding), IC50 estimate; format: biochemical; conditions: estimated from inhibition at three compound concentrations; ATP at Km; read-out: IC50 value estimates against FGFR1
Description: For a number of compounds, IC50 values were estimated against kinases of interest based on Millipore protocols. Kinase assays at Millipore were performed using a radiolabelled phosphopeptide filter binding detection system, in duplicate, at each compound concentration. The ATP substrate concentration in the reactions was at the Km for each enzyme.
To allow for a more direct comparison of compound inhibition, an IC50 value was estimated from the inhibition determined at three compound concentrations. Several assumptions were made to allow this calculation using a 4 parameter non linear curve fit model, including full inhibition set at 100%, no inhibition set to 0%, and a curve fit parameter set at 1. The inflection point was reported as the estimated […].

PLK1 = biological target: T5, PLK1 (Homo sapiens, UniProt P53350); experiment: PLK1 inhibition assay (Z-Lyte); format: biochemical; conditions: dose of 10 μM; read-out: PLK1 relative inhibition percentage
T5 construct: purchased Invitrogen PV3501

[1] = tested on: A549 lung cancer cell line; experiment: Cell growth inhibition, Sulforhodamine B (SRB) assay; format: cell-based; conditions: Homo sapiens, A549, 120 h; 5 days, SRB; read-out: Cell Line GI50 Range A549
Description: (§2) Aliquots (20 μl) from each concentration were overlaid to 80 μl of the pre-seeded cells in the 96-plates to make final concentrations of 10 nM to 50 μM. The cells were cultured for 5 days before the Sulforhodamine B (SRB) assay was performed to determine the compound's cell growth inhibition activity.
(§3) Sulforhodamine B (Sigma, Canada) is a water-soluble dye that binds to the basic amino acids of cellular proteins. Thus, colorimetric measurement of the bound dye provides an estimate of the total protein mass that is related to the cell number. The cells are fixed in situ by gently aspirating off the culture media and adding 50 μl ice cold 10% Trichloroacetic Acid (TCA) per well and incubated at 4° C. for 30-60 min. The plates are washed with water five times and allowed to air dry for 5 min. Addition of 50 μl 0.4% (w/v) SRB solution in 1% (v/v) acetic acid to each well and incubatation for […] at RT completes the staining reaction. Following staining, plates are washed four times with 1% acetic acid to remove unbound dye and then allowed to air dry for 5 min. […] Absorbance is read at 570 nm.
(§4) The percentage (%) of relative growth inhibition was calculated by comparing to DMSO-treated only cells (100%). GI50's were determined for compounds with cytotoxic activity. The GI50 was calculated using GraphPad PRISM software (GraphPad Software, Inc., USA).

[2] = tested on: MCF-7 luminal breast cancer cell line; experiment: as above; format: cell-based; conditions: Homo sapiens, MCF7, 120 h; 5 days, SRB; read-out: Cell Line GI50 Range MCF-7
Description: as §2, §3, §4

[3] = tested on: SW620 colon cancer cell line; experiment: as above; format: cell-based; conditions: Homo sapiens, SW-620, 120 h; 5 days, SRB; read-out: Cell Line GI50 Range SW620
Description: as §2, §3, §4

[4] = tested on: human mammary epithelial primary cells (HMEC); experiment: as above; format: cell-based; conditions: 120 h, 5 days, SRB, normal primary breast cells, read-out: Cell Line GI50 Range HMEC
Description: as §2, §3, §4

[5] = tested on: MDA-MB-468 basal breast cancer cell line; experiment: as above; format: cell-based; conditions: Homo sapiens, MDA-MB-468, 120 h; 5 days, SRB; read-out: Cell Line GI50 Range MDA-MB-468
[6] = tested on: HCC1954 basal breast cancer cell line; experiment: as above; format: cell-based; conditions: Homo sapiens, HCC1954, 120 h; 5 days, SRB; Table 5; read-out: Cell Line GI50 Range HCC1954
Description: as §2, §3, §4
The SRB assay described above was used to assay test compounds against the extended panel (Table 6).

T3 sequence (Q96GD4 whole entry): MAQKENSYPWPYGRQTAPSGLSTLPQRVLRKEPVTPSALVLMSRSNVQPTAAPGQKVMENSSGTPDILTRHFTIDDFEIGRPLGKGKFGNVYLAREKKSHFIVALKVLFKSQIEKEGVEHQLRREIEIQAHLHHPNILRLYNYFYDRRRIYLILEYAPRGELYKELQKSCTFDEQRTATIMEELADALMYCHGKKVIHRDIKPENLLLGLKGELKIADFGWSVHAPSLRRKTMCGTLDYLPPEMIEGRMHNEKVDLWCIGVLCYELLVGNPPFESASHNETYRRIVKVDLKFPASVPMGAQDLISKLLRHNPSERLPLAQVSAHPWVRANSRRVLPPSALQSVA
T4 sequence (Q9NYY3 whole entry): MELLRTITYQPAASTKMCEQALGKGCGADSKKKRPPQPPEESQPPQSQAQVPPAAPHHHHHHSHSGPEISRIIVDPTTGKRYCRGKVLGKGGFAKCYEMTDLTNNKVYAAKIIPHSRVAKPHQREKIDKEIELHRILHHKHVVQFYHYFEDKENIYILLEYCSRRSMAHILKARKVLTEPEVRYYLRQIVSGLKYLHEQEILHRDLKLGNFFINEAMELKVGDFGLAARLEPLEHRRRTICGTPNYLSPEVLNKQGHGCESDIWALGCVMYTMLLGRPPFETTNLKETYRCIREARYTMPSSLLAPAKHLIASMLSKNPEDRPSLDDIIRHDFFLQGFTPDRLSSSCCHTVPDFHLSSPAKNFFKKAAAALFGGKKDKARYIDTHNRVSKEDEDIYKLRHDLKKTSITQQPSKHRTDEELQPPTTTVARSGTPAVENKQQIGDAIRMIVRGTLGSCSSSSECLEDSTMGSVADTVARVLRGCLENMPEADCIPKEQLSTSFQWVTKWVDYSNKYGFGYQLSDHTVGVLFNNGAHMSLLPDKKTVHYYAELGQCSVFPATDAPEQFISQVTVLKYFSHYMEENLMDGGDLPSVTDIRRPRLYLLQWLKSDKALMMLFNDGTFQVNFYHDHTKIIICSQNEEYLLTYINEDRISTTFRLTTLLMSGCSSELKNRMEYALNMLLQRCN
T5 sequence (P53350 whole entry): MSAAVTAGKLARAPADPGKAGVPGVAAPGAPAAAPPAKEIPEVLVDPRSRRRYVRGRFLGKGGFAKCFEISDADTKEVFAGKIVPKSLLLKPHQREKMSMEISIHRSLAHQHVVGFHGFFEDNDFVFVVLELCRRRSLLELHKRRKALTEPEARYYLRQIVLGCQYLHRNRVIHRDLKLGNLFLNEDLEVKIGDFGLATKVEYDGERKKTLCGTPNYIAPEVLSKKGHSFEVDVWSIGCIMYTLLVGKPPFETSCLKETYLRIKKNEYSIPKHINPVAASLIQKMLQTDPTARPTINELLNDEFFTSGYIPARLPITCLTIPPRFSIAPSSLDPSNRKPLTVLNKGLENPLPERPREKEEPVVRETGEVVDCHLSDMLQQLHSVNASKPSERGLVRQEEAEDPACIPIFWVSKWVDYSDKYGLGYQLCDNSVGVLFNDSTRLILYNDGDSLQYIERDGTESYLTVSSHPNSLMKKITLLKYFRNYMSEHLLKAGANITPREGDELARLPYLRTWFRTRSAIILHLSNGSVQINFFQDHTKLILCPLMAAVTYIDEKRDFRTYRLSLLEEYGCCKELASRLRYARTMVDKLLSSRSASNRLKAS

Structure (SMILES): COc1ccc2c(c1)/C(=C\c1ccc3c(-c4ccc(N(C)C)nc4)n[nH]c3c1)C(=O)N2 [Compound 11]
IC50 (human PLK4): < 5 µM
IC50 (Aurora A; read-out: IC50 Ranges Aurora A): < 5 µM
IC50 (Aurora B): < 5 µM

Structure (SMILES): O=C1Nc2ccccc2[C@@]12C[C@@H]2c1ccc2cn[nH]c2c1 (racemic) [Compound 40]
IC50 (PLK2; read-out: IC50 Ranges PLK2): > 50 µM

Structure (SMILES): COc1ccc2c(c1)[C@]1(C[C@H]1c1ccc3c(/C=C/c4ccc(CN5C[C@@H](C)O[C@@H](C)C5)cc4)n[nH]c3c1)C(=O)N2 [Compound 37]
inhibition at 10 µM (Aurora A): > 50%

Structure (SMILES): O=C1Nc2ccccc2/C1=C\c1ccc2cn[nH]c2c1 [Compound 26]
% Inhibition at 10 μM Concentration (AMPKalpha): 54%

Structure (SMILES): O=C1Nc2ccccc2/C1=C\c1ccc2c(/C=C/c3ccncc3)n[nH]c2c1 [Compound 28]
IC50 (FGFR1): < 5 µM

Structure (SMILES): COc1ccc2c(c1)C1(CC1c1ccc3c(I)n[nH]c3c1)C(=O)N2 (centres unmarked) [Compound 12]
IC50 (human PLK4): < 5 µM

Structure (SMILES): CN(C)Cc1ccc(/C=C/c2n[nH]c3cc(C=C4C(=O)Nc5ccccc54)ccc23)cc1 [Compound 39]
inhibition at 10 µM (PLK1): < 50%
inhibition at 10 µM (Aurora A): > 50%
IC50 (FGFR1): < 5 µM

Structure (SMILES): C[C@@H]1CN(Cc2ccc(/C=C/c3n[nH]c4cc([C@@H]5C[C@@]56C(=O)Nc5ccccc56)ccc34)cc2)C[C@H](C)O1 [Compound 38]
inhibition at 10 µM (Aurora A): > 50%

Structure (SMILES): COc1ccc2c(c1)C(=Cc1ccc3c(-c4ccc(N5CCN(C)CC5)nc4)n[nH]c3c1)C(=O)N2 [Compound 31]
% Inhibition at 10 μM Concentration (AMPKalpha): 76%
IC50 (FGFR1): < 5 µM

Structure (SMILES): COc1ccc2c(c1)[C@]1(C[C@H]1c1ccc3c(/C=C/c4ccc(CN5CCOCC5)cc4)n[nH]c3c1)C(=O)N2C [Compound 36]
inhibition at 10 µM (Aurora A): > 50%
IC50 (Aurora B): < 5 µM

Further lines, with some results ahead:

IC50 (human PLK4): < 5 µM
IC50 (Aurora B): < 5 µM
Structure (SMILES): Cc1ncsc1/C=C/c1n[nH]c2cc(/C=C3/C(=O)Nc4ccccc43)ccc12 [Compound 10]

IC50 (human PLK4): < 5 µM
Structure (SMILES): COc1ccc2c(c1)/C(=C\c1ccc3c(/C=C/c4ccc(CN(C)C)cc4)n[nH]c3c1)C(=O)N2 [Compound 1]

% Inhibition at 10 μM Concentration (AMPKalpha): 8%
Structure (SMILES): O=C1Nc2ccccc2/C1=C\c1ccc2c(/C=C/c3ccccc3Cl)n[nH]c2c1 [Compound 29]

inhibition at 10 µM (PLK2): < 50%
GI50 [1]: < 5 µM
GI50 [2]: < 5 µM
GI50 [3]: < 5 µM
GI50 [5]: < 5 µM
GI50 [6]: < 5 µM
Structure (SMILES): O=C1Nc2ccccc2[C@@]12C[C@@H]2c1ccc2c(/C=C/c3ccncc3)n[nH]c2c1 (racemic) [Compound 6]
GI50 [4]: 5 to 20 µM

inhibition at 10 µM (PLK1): < 50%
inhibition at 10 µM (PLK2): < 50%
Structure (SMILES): CN(C)Cc1ccc(/C=C/c2n[nH]c3cc([C@@H]4C[C@@]45C(=O)Nc4ccccc45)ccc23)cc1 (racemic) [Compound 5]

% Inhibition at 10 μM Concentration (AMPKalpha): 15%
Structure (SMILES): O=C1Nc2ccccc2/C1=C\c1ccc2[nH]nnc2c1 [Compound 24]

% Inhibition at 10 μM Concentration (AMPKalpha): 81%
IC50 (FGFR1): < 5 µM
Structure (SMILES): O=C1Nc2ccccc2C1=Cc1ccc2c(/C=C/c3ccccn3)n[nH]c2c1 [Compound 9]
